Source: the NIST ThermoML archive (doi:10.1016/j.fluid.2018.10.006)
Several values for one entry are separate records, joined by “and”; a condition that tells them apart may be missing. Identical values can stand only once. Numbers after ± are expanded uncertainties.

Conditions: 513.09 K, Fluid (supercritical or subcritical phases), Coaxial cylinder method

With `CCCCCC` [hexane] the thermal conductivity (3280 kPa) was 0.07438 ± 0.0035 W/m/K, the thermal conductivity (3282 kPa) was 0.07445 ± 0.0035 W/m/K and the thermal conductivity (3284 kPa) was 0.07451 ± 0.0035 W/m/K. It also gave a thermal conductivity (3287 kPa) of 0.07452 ± 0.0035 W/m/K, a thermal conductivity (3288 kPa) of 0.07459 ± 0.0035 W/m/K and a thermal conductivity (3290 kPa) of 0.07463 ± 0.0035 W/m/K. The thermal conductivity (3292 kPa) was 0.07463 ± 0.0035 W/m/K, the thermal conductivity (3295 kPa) was 0.07469 ± 0.0035 W/m/K and the thermal conductivity (3298 kPa) was 0.07463 ± 0.0035 W/m/K. It also gave a thermal conductivity (3303 kPa) of 0.07463 ± 0.0035 W/m/K, a thermal conductivity (3306 kPa) of 0.07437 ± 0.0035 W/m/K and a thermal conductivity (3310 kPa) of 0.07332 ± 0.0034 W/m/K. For the same compound, the thermal conductivity (3312 kPa) was 0.07332 ± 0.0034 W/m/K, the thermal conductivity (3313 kPa) was 0.07228 ± 0.0034 W/m/K and the thermal conductivity (3318 kPa) was 0.07228 ± 0.0034 W/m/K. For the same compound, the thermal conductivity (3319 kPa) was 0.07228 ± 0.0034 W/m/K, the thermal conductivity (3322 kPa) was 0.07228 ± 0.0034 W/m/K and the thermal conductivity (3326 kPa) was 0.07228 ± 0.0034 W/m/K. It also gave a thermal conductivity (3330 kPa) of 0.07228 ± 0.0034 W/m/K, a thermal conductivity (3331 kPa) of 0.07228 ± 0.0034 W/m/K and a thermal conductivity (3332 kPa) of 0.07228 ± 0.0034 W/m/K. It also gave a thermal conductivity (3334 kPa) of 0.07228 ± 0.0034 W/m/K, a thermal conductivity (3336 kPa) of 0.07228 ± 0.0034 W/m/K and a thermal conductivity (3340 kPa) of 0.07228 ± 0.0034 W/m/K. For the same compound, the thermal conductivity (3343 kPa) was 0.07197 ± 0.0034 W/m/K, the thermal conductivity (3345 kPa) was 0.07087 ± 0.0033 W/m/K and the thermal conductivity (3346 kPa) was 0.07087 ± 0.0033 W/m/K. It also gave a thermal conductivity (3347 kPa) of 0.07087 ± 0.0033 W/m/K, a thermal conductivity (3350 kPa) of 0.07087 ± 0.0033 W/m/K and a thermal conductivity (3360 kPa) of 0.07087 ± 0.0033 W/m/K. The thermal conductivity (3370 kPa) was 0.07087 ± 0.0033 W/m/K, the thermal conductivity (3380 kPa) was 0.07087 ± 0.0033 W/m/K and the thermal conductivity (3390 kPa) was 0.07087 ± 0.0033 W/m/K. The thermal conductivity (3400 kPa) was 0.06942 ± 0.0032 W/m/K, the thermal conductivity (3420 kPa) was 0.06942 ± 0.0032 W/m/K and the thermal conductivity (3430 kPa) was 0.06942 ± 0.0032 W/m/K. For the same compound, the thermal conductivity (3450 kPa) was 0.06824 ± 0.0032 W/m/K and 0.06843 ± 0.0032 W/m/K, the thermal conductivity (3500 kPa) was 0.06824 ± 0.0032 W/m/K and the thermal conductivity (3600 kPa) was 0.06824 ± 0.0032 W/m/K. It also gave a thermal conductivity (3700 kPa) of 0.06824 ± 0.0032 W/m/K, a thermal conductivity (3800 kPa) of 0.06824 ± 0.0032 W/m/K and a thermal conductivity (3900 kPa) of 0.06824 ± 0.0032 W/m/K. The thermal conductivity (4000 kPa) was 0.07056 ± 0.0033 W/m/K, the thermal conductivity (4100 kPa) was 0.0708 ± 0.0033 W/m/K and 0.07056 ± 0.0033 W/m/K and the thermal conductivity (4200 kPa) was 0.07086 ± 0.0033 W/m/K. The thermal conductivity (4300 kPa) was 0.07086 ± 0.0033 W/m/K, the thermal conductivity (4600 kPa) was 0.07116 ± 0.0033 W/m/K and the thermal conductivity (4700 kPa) was 0.07125 ± 0.0033 W/m/K. It also gave a thermal conductivity (4800 kPa) of 0.07144 ± 0.0033 W/m/K, a thermal conductivity (4900 kPa) of 0.07165 ± 0.0034 W/m/K and a thermal conductivity (5000 kPa) of 0.07187 ± 0.0034 W/m/K. For the same compound, the thermal conductivity (5100 kPa) was 0.07209 ± 0.0034 W/m/K, the thermal conductivity (5200 kPa) was 0.07225 ± 0.0034 W/m/K and the thermal conductivity (5300 kPa) was 0.0725 ± 0.0034 W/m/K. For the same compound, the thermal conductivity (5400 kPa) was 0.07269 ± 0.0034 W/m/K, the thermal conductivity (5500 kPa) was 0.07288 ± 0.0034 W/m/K and the thermal conductivity (5600 kPa) was 0.07304 ± 0.0034 W/m/K. For the same compound, the thermal conductivity (5700 kPa) was 0.07323 ± 0.0034 W/m/K, the thermal conductivity (5800 kPa) was 0.07339 ± 0.0034 W/m/K and the thermal conductivity (5900 kPa) was 0.07359 ± 0.0034 W/m/K. For the same compound, the thermal conductivity (6000 kPa) was 0.07375 ± 0.0034 W/m/K, the thermal conductivity (6100 kPa) was 0.07391 ± 0.0034 W/m/K and the thermal conductivity (6200 kPa) was 0.07408 ± 0.0034 W/m/K. It also gave a thermal conductivity (6300 kPa) of 0.07424 ± 0.0035 W/m/K, a thermal conductivity (6400 kPa) of 0.07438 ± 0.0035 W/m/K and a thermal conductivity (6500 kPa) of 0.07454 ± 0.0035 W/m/K. It also gave a thermal conductivity (6600 kPa) of 0.07471 ± 0.0035 W/m/K, a thermal conductivity (6700 kPa) of 0.07488 ± 0.0035 W/m/K and a thermal conductivity (6800 kPa) of 0.07501 ± 0.0035 W/m/K. For the same compound, the thermal conductivity (6900 kPa) was 0.07515 ± 0.0035 W/m/K, the thermal conductivity (7000 kPa) was 0.07528 ± 0.0035 W/m/K and the thermal conductivity (7100 kPa) was 0.07542 ± 0.0035 W/m/K. It also gave a thermal conductivity (7150 kPa) of 0.07549 ± 0.0035 W/m/K, a thermal conductivity (7200 kPa) of 0.07556 ± 0.0035 W/m/K and a thermal conductivity (7211 kPa) of 0.07556 ± 0.0035 W/m/K. For the same compound, the thermal conductivity (7292 kPa) was 0.07569 ± 0.0035 W/m/K, the thermal conductivity (7496 kPa) was 0.07597 ± 0.0035 W/m/K and the thermal conductivity (7501 kPa) was 0.07597 ± 0.0035 W/m/K. It also gave a thermal conductivity (7517 kPa) of 0.07597 ± 0.0035 W/m/K, a thermal conductivity (7533 kPa) of 0.07599 ± 0.0035 W/m/K and a thermal conductivity (7800 kPa) of 0.07638 ± 0.0035 W/m/K. It also gave a thermal conductivity (8100 kPa) of 0.07676 ± 0.0036 W/m/K and a thermal conductivity (8200 kPa) of 0.07687 ± 0.0036 W/m/K.
